{
  "source": "paper PMC10291552",
  "about": "“Computational Design, Synthesis, and Biological Evaluation of Diimidazole Analogues Endowed with Dual PCSK9/HMG-CoAR-Inhibiting Activity” (Journal of Medicinal Chemistry, 2023)",
  "key": {"[1]": {"target": "T1, PCSK9/LDLR (Homo sapiens, UniProt Q8NBP7)", "T1 construct": "purchased CircuLex (CycLex Co., Nagano, Japan)", "T1 sequence (Q8NBP7 153-692)": "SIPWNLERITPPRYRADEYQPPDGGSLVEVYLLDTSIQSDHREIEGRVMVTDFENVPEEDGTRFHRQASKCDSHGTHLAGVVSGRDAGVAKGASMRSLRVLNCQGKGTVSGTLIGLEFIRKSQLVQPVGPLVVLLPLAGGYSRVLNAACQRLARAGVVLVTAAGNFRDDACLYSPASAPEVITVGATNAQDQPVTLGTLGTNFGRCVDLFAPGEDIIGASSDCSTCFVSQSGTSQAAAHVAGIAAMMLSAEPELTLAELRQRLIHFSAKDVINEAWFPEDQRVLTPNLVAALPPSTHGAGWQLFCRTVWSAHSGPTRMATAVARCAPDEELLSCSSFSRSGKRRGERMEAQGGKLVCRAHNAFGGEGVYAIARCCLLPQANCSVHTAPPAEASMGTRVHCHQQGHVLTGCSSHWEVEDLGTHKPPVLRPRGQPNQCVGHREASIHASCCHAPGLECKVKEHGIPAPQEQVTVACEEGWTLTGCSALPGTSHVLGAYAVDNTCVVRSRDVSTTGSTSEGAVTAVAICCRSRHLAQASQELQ", "T1 sequence (Q8NBP7 31-152 limits assumed)": "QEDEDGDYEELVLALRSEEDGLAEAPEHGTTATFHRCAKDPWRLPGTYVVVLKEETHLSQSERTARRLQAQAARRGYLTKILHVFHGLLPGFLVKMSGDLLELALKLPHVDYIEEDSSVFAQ", "settings": "cited from earlier work"}, "[2]": {"target": "T1, PCSK9/LDLR", "assay": "In vitro PCSK9-LDLR binding assay (CircuLex/CycLex kit)", "settings": "for IC50: mean ± SD, three independent experiments, Hill slope fixed at −1", "protocol": "Diimidazole analogues (0.1–1 × 10^6 nM) were tested using the in vitro PCSK9-LDLR binding assay (CycLex Co., Nagano, Japan) following the manufacturer’s instructions and with the conditions already optimized.[15] Briefly, the plates were pre-coated with a recombinant LDLR-AB domain containing the binding site of PCSK9. Before starting the assay, the tested analogues and/or the vehicle in DMSO were sonicated at 37 °C, diluted in the reaction buffer, and added in microcentrifuge tubes. Afterward, the reaction mixtures were added in each well of the microplate, and the reaction was started by adding His-tagged PCSK9 solution (3 μL). The microplate was allowed to incubate for 2 h at room-temperature (RT) shaking at 300 rpm on an orbital microplate shaker. Subsequently, the wells were washed 4 times with the wash buffer. After the last wash, the biotinylated anti-His-tag monoclonal antibody (100 μL) was added and incubated at RT for 1 h shaking at 300 rpm. After incubation, the wells were washed 4 times with wash buffer. After the last wash, 100 μL of HRP-conjugated streptavidin were added, and the plate was incubated for 20 min at RT. After incubation, the wells were washed 4 times with wash buffer. Finally, the substrate reagent (tetra-methylbenzidine) was added, and the plate was incubated for 10 min at RT shaking at ca. 300 rpm. The reaction was stopped with 2.0 M sulfuric acid, and the absorbance at 450 nm was measured using a Synergy H1 fluorescent plate reader (Winooski, VT, USA).\nAll the data sets were checked for normal distribution by D’Agostino and Pearson tests. Since they are all normally disturbed with p values of […], we proceeded with statistical analyses of one-way ANOVA followed by Tukey’s post hoc test using Graphpad Prism 9 (San Diego, CA, USA). Values were reported as means ± s.d.; p values of <0.05 were considered to be significant. The IC50 values of samples inhibiting PCSK9-LDLR binding were evaluated by using the log(inhibitor) vs response model of GraphPad Prism 9 (San Diego, CA, USA). This model assumes that the dose–response curves has a standard slope, equal to a Hill slope (or slope factor) of −1.0. This is the slope expected when a ligand binds to a receptor following the law of mass action and is the slope expected of a dose–response curve when the second messenger created by receptor stimulation binds to its receptor by the law of mass action (https://graphpad.com/guides/prism/latest/curvefitting/reg_dr_inhibit.htm)."}, "[3]": {"target": "T2, HMG-CoAR (catalytic domain) (Homo sapiens, UniProt P04035)", "T2 construct": "and finally, HMG-CoAR (catalytic domain) (2 μL); purchased Sigma Aldrich", "T2 sequence (P04035 426-888 limits assumed)": "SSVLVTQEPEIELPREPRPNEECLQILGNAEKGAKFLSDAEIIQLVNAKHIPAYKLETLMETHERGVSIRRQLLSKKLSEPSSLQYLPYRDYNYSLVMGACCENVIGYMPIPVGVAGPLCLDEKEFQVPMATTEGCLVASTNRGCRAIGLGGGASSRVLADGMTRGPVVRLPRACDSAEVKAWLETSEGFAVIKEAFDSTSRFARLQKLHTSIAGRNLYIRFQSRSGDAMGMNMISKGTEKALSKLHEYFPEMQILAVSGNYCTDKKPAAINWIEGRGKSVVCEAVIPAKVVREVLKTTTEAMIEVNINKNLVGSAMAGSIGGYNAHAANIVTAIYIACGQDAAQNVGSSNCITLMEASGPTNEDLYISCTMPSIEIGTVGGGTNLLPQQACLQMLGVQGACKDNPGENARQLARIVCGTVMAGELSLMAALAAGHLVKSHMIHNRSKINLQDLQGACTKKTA", "assay": "HMG-CoAR activity assay (Sigma kit, NADPH oxidation at 340 nm)", "assay_type": "biochemical", "settings": "10–500 μM tested, 37 °C", "protocol": "The experiments were carried out following the manufacturer’s instructions and optimized protocol.[43] The assay buffer, NADPH, substrate solution, and HMG-CoAR were provided in the HMG-CoAR Assay Kit (Sigma Aldrich SRL, Milan, Italy). The experiments were carried out following the manufacturer’s instructions at 37 °C. In particular, each reaction (200 μL) was prepared adding the reagents in the following order: 1× assay buffer, a 10–500 μM dose of sonicated Dim analogues or vehicle (C), NADPH (4 μL), the substrate solution (12 μL), and finally, HMG-CoAR (catalytic domain) (2 μL). Subsequently, the samples were mixed, and the absorbance at 340 nm was read by a microplate reader (Synergy H1, Winooski, VT, USA) at times of 0 and 10 min. The HMGCoAR-dependent oxidation of NADPH and the inhibition properties of the peptides were measured by absorbance reduction, which is directly proportional to enzyme activity."}, "[4]": {"target": "T2, HMG-CoAR (catalytic domain)", "design": "method as in doi:10.1016/j.jff.2017.02.009", "settings": "cited from earlier work"}, "[5]": {"assay": "Solubility in PBS pH 7.4", "assay_type": "physicochemical", "settings": "PBS buffer, pH 7.4, PBS, 37 °C", "protocol": "Solubility was tested after incubation of the test item at 200 μM and 500 μM in PBS buffer pH 7.4 starting from an initial DMSO solution of Dim22 100 mM. Samples in duplicates were incubated at 37 °C for 90 min, were then centrifuged at 12500 rpm for 5 min. Supernatants were analyzed in LC/MS together with a solution of the compound in ACN."}, "[6]": {"assay": "Metabolic stability in human liver microsomes (with UDPGA)", "settings": "for Cli: human liver microsomes 0.5 mg/mL, 5 μM, cofactors + UDPGA (Phase II stability)", "procedure": "(§1) After the pre-incubation period, the reaction was started by adding the cofactor mixture (NADP, Glc6P, and Glc6P-DH in 2% sodium bicarbonate) and UDPGA. Samples (25 μL) were taken at times of 0, 10, 20, 30, 45, and 60 min and then mixed with 150 μL of ACN to stop the reaction. After centrifugation, the supernatants were analyzed by LC–MS/MS. A control sample without cofactors was included in the assay in order to check the stability of the test compounds in the matrix after 60 min. 7-Ethoxycoumarin (7-EC) and 7-hydroxycoumarin (7-OHC) were contemporarily tested as reference standards for the Phase I and Phase II reactions, respectively."}, "[7]": {"assay": "Metabolic stability in mouse liver microsomes (with UDPGA)", "settings": "for Cli: mouse liver microsomes 0.5 mg/mL, 5 μM, cofactors + UDPGA (Phase II stability)", "procedure": "as §1"}},
  "note": "Several values for one entry are separate records, joined by “and”; a condition that tells them apart may be missing. Identical values can stand only once. Like-named read-outs stand apart in the source and are kept apart here.",
  "data": [
    {"compound": "Cn1cnc(-c2ncc(-c3nc(-c4ncc(-c5ccccc5)n4C)cn3C)n2C)c1", "note": "[MeIm]", "values": [
      {"measurement": "IC50 value (PCSK9–LDLR interaction)", "setting": "[1]; in words", "result": "low-micromolar range"}
    ]},
    {"compound": "CNCCCCCn1cncc1-c1nc(-c2ncc(-c3ccc(OC)cc3)n2C)cn1Cc1ccccc1", "note": "[Rim13]", "values": [
      {"measurement": "affinity with PCSK9", "setting": "[1]; in words", "result": "low micromolar affinity"},
      {"measurement": "IC50", "setting": "[1]; read-out: PCSK9/LDLR interaction IC50", "result": "1600 nM and ~1000 nM"}
    ]},
    {"compound": "CNCCCCCn1cncc1-c1nc(-c2ncc(-c3ccc(OC)cc3)n2C)cn1CCc1ccccc1", "note": "[RIm14]", "values": [
      {"measurement": "affinity with PCSK9", "setting": "[1]; in words", "result": "low micromolar affinity"}
    ]},
    {"compound": "CNCCCCCn1cncc1-c1ncc(-c2ccc3ccccc3c2)n1CCCC(C)(C)C", "note": "[Dim2, 5-(1-(4,4-Dimethylpentyl)-5-(naphthalen-2-yl)-1H,3′H-[2,4′-biimidazol]-3′-yl)-N-methylpentan-1-amine]", "values": [
      {"measurement": "IC50", "setting": "[2]", "result": "1990 ± 1650", "unit": "nM"},
      {"measurement": "PCSK9 activity, times less active than Dim16", "setting": "[2]; ratio versus Dim16", "result": "about 2500"},
      {"measurement": "IC50", "setting": "[3]", "result": "40500 ± 15200", "unit": "nM"}
    ]},
    {"compound": "C#Cc1ncc(-c2ncc(-c3ccc4ccccc4c3)n2CC2CCCCC2)n1CCCCCNC", "note": "[Dim23, 5-(1-(Cyclohexylmethyl)-2′-ethynyl-5-(naphthalen-2-yl)-1H,3′H-[2,4′-biimidazol]-3′-yl)-N-methylpentan-1-mine]", "values": [
      {"measurement": "IC50", "setting": "[2]", "result": "1180 ± 1060", "unit": "nM"},
      {"measurement": "HMG-CoAR activity IC50", "setting": "[3]", "result": "not active"}
    ]},
    {"compound": "LILPKHSDAD [P5, peptide P5 derived from lupin proteins]", "values": [
      {"measurement": "IC50", "setting": "[1]; read-out: PCSK9/LDLR PPI IC50", "result": 1600, "unit": "nM"},
      {"measurement": "IC50", "setting": "[4]", "result": 147000, "unit": "nM"}
    ]},
    {"compound": "CNCCCCCn1cncc1-c1ncc(-c2ccc3ccccc3c2)n1CC1CCCCC1", "note": "[Dim21, 5-(1-(Cyclohexylmethyl)-5-(naphthalen-2-yl)-1H,3′H-[2,4′-biimidazol]-3’-yl)-N-methylpentan-1-amine]", "values": [
      {"measurement": "IC50", "setting": "[2]", "result": "4500 ± 500", "unit": "nM"},
      {"measurement": "IC50", "setting": "[3]", "result": "38400 ± 12700", "unit": "nM"}
    ]},
    {"compound": "CNCCCCCn1c(-c2ncc(-c3ccc4ccccc4c3)n2CC2CCCCC2)cnc1I", "note": "[Dim22, 5-(1-(Cyclohexylmethyl)-2′-iodo-5-(naphthalen-2-yl)-1H,3′H-[2,4′-biimidazol]-3′-yl)-N-methylpentan-1-amine]", "values": [
      {"measurement": "IC50", "setting": "[2]", "result": "1990 ± 2860", "unit": "nM"},
      {"measurement": "IC50", "setting": "[3]", "result": "36200 ± 5980", "unit": "nM"},
      {"measurement": "solubility at 90 min", "setting": "[5]", "result": "~10", "unit": "µM"},
      {"measurement": "solubility at 1.5 h", "setting": "[5]; 90 min", "result": 5.8, "unit": "µg/mL"},
      {"measurement": "Cli", "setting": "[6]", "result": 51.5, "unit": "μL/min/mg protein"},
      {"measurement": "clearance classification", "setting": "[6]; human liver microsomes, classification of Table S4", "result": "medium–high"},
      {"measurement": "non-NADPH-dependent part of the observed metabolism", "setting": "[6]; humans", "result": 50, "unit": "%"},
      {"measurement": "NADPH dependence of the observed metabolism", "setting": "[7]; mice", "result": "NADPH-dependent"},
      {"measurement": "Cli", "setting": "[7]", "result": 57.0, "unit": "μL/min/mg protein"},
      {"measurement": "clearance classification", "setting": "[7]; mouse liver microsomes, classification of Table S4", "result": "medium–high"}
    ]},
    {"compound": "CCOc1ccc2ccc(=O)oc2c1", "note": "[7-EC, 7-Ethoxycoumarin, reference compound]", "values": [
      {"measurement": "Cli", "setting": "[6]", "result": 46.1, "unit": "μL/min/mg protein"},
      {"measurement": "Cli", "setting": "[7]", "result": 290.9, "unit": "μL/min/mg protein"}
    ]},
    {"compound": "O=c1ccc2ccc(O)cc2o1", "note": "[7-OHC, 7-hydroxycoumarin, reference compound]", "values": [
      {"measurement": "Cli", "setting": "[6]", "result": 390.0, "unit": "μL/min/mg protein"},
      {"measurement": "Cli", "setting": "[7]", "result": 533.3, "unit": "μL/min/mg protein"}
    ]}
  ]
}
